Test systems include A498 renal; ACHN renal; DU-145 prostate; HT29 colon; IGROV1 ovarian; KM12 colon; MDA-N; NCI-H226 lung; PC-3 prostate; SF-539 CNS; SK-OV-3 ovarian; UACC-62 melanoma.
Common to all, as to test: growth of human tumour cells (NCI), 48 h

Structures are written as SMILES.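 Where inhibition never reached the appropriate level, the endpoint shown equals the highest concentration tested. Otherwise, values were interpolated linearly from a five-concentration, 48-hour dose response in 96-well plates. Definition used: TGI = concentration required for complete inhibition of growth.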 Some results are limits rather than exact numbers.

With `COc1cc2oc(=O)ccc2cc1C(=O)CC(C)C`, the TGI in the test with A498 renal, in the test on ACHN renal, with DU-145 prostate, in the test on HT29 colon, with IGROV1 ovarian and with KM12 colon was more than 100 µM in each case. In addition, the TGI with MDA-N, in the test on NCI-H226 lung, with PC-3 prostate, with SF-539 CNS, in the test on SK-OV-3 ovarian and in the test with UACC-62 melanoma was more than 100 µM each time.

With `CC(C)(C)OC(=O)NC(CCCCNC(=O)OCc1ccccc1)C(=O)NCCNc1ccc(NCCNC(=O)C(CCCCNC(=O)OCc2ccccc2)NC(=O)OC(C)(C)C)c2c1C(=O)c1ccccc1C2=O` (stereo unspecified), the TGI in the test with A498 renal, in the test on ACHN renal, in the test on DU-145 prostate, in the test on HT29 colon, in the test with IGROV1 ovarian and in the test on KM12 colon was more than 100 µM throughout. Also, the TGI in the test on MDA-N was more than 100 µM; in the test with NCI-H226 lung it was more than 100 µM; with PC-3 prostate, more than 100 µM; in the test on SF-539 CNS, more than 52.8 µM; with SK-OV-3 ovarian, more than 90.1 µM; in the test on UACC-62 melanoma it was more than 100 µM.

On to `CC(=O)OC1CC[C@@]2(C)C(=CC[C@@H]3[C@@H]2CC[C@]2(C)Nc4nn(S(C)(=O)=O)cc4C[C@@H]32)C1` (stereo partly specified), for which the TGI is more than 100 µM in the test with A498 renal; more than 100 µM in the test on DU-145 prostate; 25.4 µM in the test on HT29 colon; more than 100 µM in the test with IGROV1 ovarian; 81.8 µM in the test on KM12 colon; 74.5 µM with MDA-N. In addition, the TGI in the test with NCI-H226 lung was 92 µM; in the test with PC-3 prostate, more than 100 µM; in the test with SK-OV-3 ovarian, more than 100 µM; with UACC-62 melanoma, 50.2 µM.

In the case of `O=C(CSc1nc2ccc([N+](=O)[O-])cc2s1)c1ccc2ccccc2c1`, the TGI with A498 renal, in the test with ACHN renal, with DU-145 prostate, with HT29 colon, with IGROV1 ovarian and with KM12 colon was more than 100 µM throughout. In addition, the TGI in the test on MDA-N, with NCI-H226 lung, in the test with PC-3 prostate, in the test on SF-539 CNS, with SK-OV-3 ovarian and in the test with UACC-62 melanoma was more than 100 µM throughout.

Take `Cc1ccccc1N=Nc1c(O)c(S(=O)(=O)O)cc2cc(S(=O)(=O)O)ccc12`: the TGI in the test on A498 renal, with ACHN renal, in the test with DU-145 prostate, with HT29 colon, in the test with IGROV1 ovarian and in the test with KM12 colon was more than 100 µM throughout. Besides, the TGI in the test with MDA-N, in the test with NCI-H226 lung, with PC-3 prostate, with SF-539 CNS, in the test with SK-OV-3 ovarian and in the test with UACC-62 melanoma was more than 100 µM in each case.

For `O=c1c2cc(I)ccc2nc(SCc2nncs2)n1Cc1ccccc1`, the TGI in the test on A498 renal is 65.1 µM; with ACHN renal, more than 100 µM; in the test on DU-145 prostate it was more than 100 µM; with HT29 colon it was more than 100 µM; with IGROV1 ovarian it was 48.7 µM; in the test on KM12 colon, more than 100 µM. In addition, the TGI in the test on MDA-N is more than 100 µM; with NCI-H226 lung it was more than 100 µM; with PC-3 prostate, more than 100 µM; in the test on SF-539 CNS, 84.1 µM; in the test with SK-OV-3 ovarian it was more than 100 µM; in the test with UACC-62 melanoma, more than 100 µM.

In the case of `Clc1ccccc1/C=c1\nc(-c2ccccc2)n2c1nc1ccccc12`, the TGI with A498 renal, in the test with ACHN renal, in the test with DU-145 prostate, with HT29 colon, in the test on IGROV1 ovarian and in the test with KM12 colon was more than 100 µM each time. The TGI was more than 100 µM with MDA-N; more than 100 µM with NCI-H226 lung; 27.9 µM in the test on PC-3 prostate; 41.9 µM in the test with SF-539 CNS; 71.7 µM in the test with SK-OV-3 ovarian; more than 100 µM with UACC-62 melanoma.

Consider `Cc1coc2c1C[C@@]1(C)[C@H](CCC[C@@H]1C)[C@H]2O`, for which the TGI was 78.3 µM in the test with ACHN renal; 56.3 µM in the test on DU-145 prostate; more than 100 µM in the test with HT29 colon; 65.4 µM with IGROV1 ovarian; more than 100 µM in the test on KM12 colon; more than 100 µM in the test on MDA-N. Further, the TGI is 56 µM in the test on NCI-H226 lung; more than 100 µM with PC-3 prostate; 62.8 µM in the test with SF-539 CNS; more than 100 µM with SK-OV-3 ovarian; more than 100 µM in the test on UACC-62 melanoma.

For the compound `COc1c(CC=C(C)C)c(O)c(C(CC(C)C)c2c(O)c3c(c(C(C)=O)c2O)OC(C(C)(C)O)C3)c(O)c1C(C)=O` (stereo unspecified), the TGI in the test with A498 renal is 12.3 µM; in the test with ACHN renal it was more than 12.5 µM; in the test on DU-145 prostate it was more than 12.5 µM; in the test on HT29 colon, more than 12.5 µM; in the test on IGROV1 ovarian, more than 12.5 µM; in the test with KM12 colon it was more than 12.5 µM. The TGI with MDA-N is more than 12.5 µM; with PC-3 prostate it was 10 µM; in the test on SF-539 CNS, more than 12.5 µM; in the test with SK-OV-3 ovarian, more than 12.5 µM; in the test with UACC-62 melanoma it was more than 12.5 µM.

Take `O=c1[nH]c(Nc2ccc(Cl)c(C(F)(F)F)c2)nc2nc[nH]c12`: the TGI was 60.9 µM with A498 renal; more than 100 µM in the test with ACHN renal; more than 100 µM in the test on DU-145 prostate; more than 100 µM in the test with HT29 colon; more than 100 µM in the test with IGROV1 ovarian; more than 100 µM in the test with KM12 colon. For the same compound, the TGI with MDA-N, with NCI-H226 lung, in the test on PC-3 prostate, in the test with SF-539 CNS, in the test on SK-OV-3 ovarian and in the test with UACC-62 melanoma was more than 100 µM throughout.

Consider `O=C(O[C@@H](/C=C/c1ccccc1)P1(=O)N(Cc2ccccc2)[C@H]2CCCC[C@@H]2N1Cc1ccccc1)c1ccccc1`, for which the TGI in the test with A498 renal is 8.43 µM; in the test on ACHN renal, 6.91 µM; with DU-145 prostate, more than 100 µM; in the test with HT29 colon it was more than 100 µM; in the test with IGROV1 ovarian, more than 100 µM; in the test with KM12 colon, 14.8 µM. Moreover, the TGI in the test on MDA-N was more than 100 µM; with NCI-H226 lung, 13.2 µM; with PC-3 prostate, 8.54 µM; in the test with SF-539 CNS, 21.3 µM; in the test on SK-OV-3 ovarian it was 77.1 µM; in the test with UACC-62 melanoma, 7.47 µM.

For `O=C(O)c1ccc(C(=O)c2ccccc2C(=O)O)cc1C(=O)O`, the TGI in the test on A498 renal, in the test with ACHN renal, in the test with DU-145 prostate, in the test on HT29 colon, in the test on IGROV1 ovarian and in the test on KM12 colon was more than 100 µM throughout. Further, the TGI in the test with MDA-N, with NCI-H226 lung, in the test on PC-3 prostate, in the test on SF-539 CNS, in the test with SK-OV-3 ovarian and with UACC-62 melanoma was more than 100 µM in each case.

Take `CC(C)(C)OC(=O)n1c2ccccc2c2c(=O)nc(N3CCCCC3)sc21`: the TGI with A498 renal, in the test with ACHN renal, in the test with DU-145 prostate, with HT29 colon, in the test on IGROV1 ovarian and with KM12 colon was more than 100 µM each time. In addition, the TGI in the test on MDA-N, in the test with PC-3 prostate, with SF-539 CNS, in the test with SK-OV-3 ovarian and with UACC-62 melanoma was more than 100 µM each time.

For `CCOC(=O)C(/C(=N/S(=O)(=O)c1cc(C)c(Cl)cc1[S-])[n+]1ccc(N(C)C)cc1)=C(/O)c1ccc([N+](=O)[O-])cc1`, the TGI in the test on A498 renal was 60.4 µM; in the test with ACHN renal, 71.6 µM; in the test on DU-145 prostate it was more than 100 µM; in the test on HT29 colon it was 55.4 µM; with IGROV1 ovarian, more than 100 µM; with KM12 colon, 82.7 µM. Further, the TGI in the test on MDA-N was more than 100 µM; with NCI-H226 lung, more than 100 µM; in the test with PC-3 prostate, 68.6 µM; with SF-539 CNS, 53.9 µM; in the test with SK-OV-3 ovarian, 68.4 µM; in the test on UACC-62 melanoma it was more than 100 µM.

As for `O=c1[nH]c2nnc(COc3ccc(Cl)cc3Cl)n2nc1Cc1ccccc1`, the TGI in the test on A498 renal is 82 µM; with ACHN renal, more than 100 µM; in the test on DU-145 prostate it was more than 100 µM; in the test with HT29 colon it was more than 100 µM; in the test with IGROV1 ovarian, 76.6 µM; in the test with KM12 colon it was more than 100 µM. For the same compound, the TGI with MDA-N was more than 100 µM; with NCI-H226 lung it was 67.5 µM; in the test on PC-3 prostate, more than 100 µM; in the test with SF-539 CNS, 39.8 µM; with SK-OV-3 ovarian it was 58.8 µM.

On to `C[N+]1(CCC(=O)c2ccco2)CC2CCC(CC2)C1` (stereo unspecified), for which the TGI in the test with A498 renal, in the test on ACHN renal, in the test on DU-145 prostate, in the test with HT29 colon, in the test on IGROV1 ovarian and with KM12 colon was more than 100 µM each time. Also, the TGI with MDA-N, in the test on NCI-H226 lung, in the test on PC-3 prostate, with SF-539 CNS and with UACC-62 melanoma was more than 100 µM throughout.

Take `CC(ON(C(c1ccccc1)C(C)C)C(C)(C)C)c1ccccc1` (stereo unspecified): the TGI in the test with ACHN renal stood at 29.3 µM; in the test with DU-145 prostate, 32.8 µM; in the test with HT29 colon, 43.5 µM; with IGROV1 ovarian it was 59.2 µM; in the test with KM12 colon, 41.8 µM; in the test on MDA-N it was 81.3 µM. Besides, the TGI in the test on NCI-H226 lung was 36.6 µM; with PC-3 prostate, 94 µM; in the test with SF-539 CNS, 43.7 µM; with SK-OV-3 ovarian it was more than 100 µM; in the test on UACC-62 melanoma, 32.2 µM.

Regarding `Nc1c(C(=O)O)nnc2cc(Cl)c(Cl)cc12`, the TGI in the test with A498 renal, in the test with ACHN renal, with DU-145 prostate, in the test with HT29 colon, with IGROV1 ovarian and in the test with KM12 colon was more than 100 µM throughout. Moreover, the TGI with MDA-N, with NCI-H226 lung, in the test with PC-3 prostate, in the test on SF-539 CNS, in the test with SK-OV-3 ovarian and with UACC-62 melanoma was more than 100 µM throughout.

With `Cc1c(N2C(=O)/C(=C/c3ccc(Cl)cc3)N=C2c2ccccc2)c(=O)n(-c2ccccc2)n1C`, the TGI was 60.5 µM with ACHN renal; more than 100 µM with DU-145 prostate; 79.8 µM with HT29 colon; 88.5 µM with IGROV1 ovarian; more than 100 µM in the test on KM12 colon; 71.6 µM in the test with MDA-N. For the same compound, the TGI with NCI-H226 lung was 96.7 µM; with PC-3 prostate, more than 100 µM; in the test with SF-539 CNS it was 73.6 µM; with SK-OV-3 ovarian it was more than 100 µM; in the test with UACC-62 melanoma it was 47.1 µM.

Turning to `Cn1cnc([N+](=O)[O-])c1Sc1nc(N)nc2c1ncn2C1OC(CO)C(O)C1O` (stereo unspecified), the TGI in the test on ACHN renal is more than 100 µM; in the test with DU-145 prostate, 66.4 µM; with HT29 colon, 33.6 µM; in the test with IGROV1 ovarian it was more than 82.1 µM; in the test on KM12 colon, 32.7 µM; in the test with MDA-N, more than 100 µM. Further, the TGI in the test with NCI-H226 lung was more than 89.3 µM; in the test on PC-3 prostate, more than 100 µM; in the test with SF-539 CNS, 85.6 µM; in the test with SK-OV-3 ovarian it was 45.5 µM; with UACC-62 melanoma it was 22.7 µM.

As to `COc1ccc(C2NC(=S)Nc3c2c(=O)oc2c3ccc3ccccc32)cc1` (stereo unspecified), the TGI with A498 renal, in the test with ACHN renal, in the test on DU-145 prostate, in the test with HT29 colon, in the test on IGROV1 ovarian and in the test on KM12 colon was more than 100 µM each time. For the same compound, the TGI in the test with MDA-N, in the test with NCI-H226 lung, with PC-3 prostate, in the test with SK-OV-3 ovarian and in the test on UACC-62 melanoma was more than 100 µM in each case.

For the origin of these results see PubChem BioAssay (NCI).
